Data set [1] addresses T1, human A2A adenosine receptors (Homo sapiens, UniProt P29274).
T1 construct: expressed in transfected cells; host or cells: CHO cells
Nature of the data set: Displacement of [^3H]CGS21680 binding, human A2A adenosine receptors in CHO cells (agonist radioligand). As to conditions: read-out: Ki(A2A). Displacement of [^3H]CGS21680 binding to human A2A adenosine receptors exp. in CHO cells.

The target of data set [2] is T2, human A1 adenosine receptors (Homo sapiens, UniProt P30542).
T2 sequence (P30542 1-326): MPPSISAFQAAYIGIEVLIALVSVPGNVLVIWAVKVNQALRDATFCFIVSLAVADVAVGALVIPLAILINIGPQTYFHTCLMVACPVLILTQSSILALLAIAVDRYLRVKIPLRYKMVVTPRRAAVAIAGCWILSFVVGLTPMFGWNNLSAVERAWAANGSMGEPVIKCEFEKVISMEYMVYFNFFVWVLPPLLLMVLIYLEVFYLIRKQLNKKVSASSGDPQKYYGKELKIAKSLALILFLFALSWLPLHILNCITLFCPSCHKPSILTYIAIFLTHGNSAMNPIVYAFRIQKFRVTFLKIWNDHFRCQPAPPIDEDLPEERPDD
Kind of data set: Displacement of [^3H]CHA binding, human A1 adenosine receptors in CHO cells (agonist radioligand).

For data set [3], the target named is T3, human A3 adenosine receptors (Homo sapiens, UniProt P0DMS8).
T3 sequence (P0DMS8 1-318): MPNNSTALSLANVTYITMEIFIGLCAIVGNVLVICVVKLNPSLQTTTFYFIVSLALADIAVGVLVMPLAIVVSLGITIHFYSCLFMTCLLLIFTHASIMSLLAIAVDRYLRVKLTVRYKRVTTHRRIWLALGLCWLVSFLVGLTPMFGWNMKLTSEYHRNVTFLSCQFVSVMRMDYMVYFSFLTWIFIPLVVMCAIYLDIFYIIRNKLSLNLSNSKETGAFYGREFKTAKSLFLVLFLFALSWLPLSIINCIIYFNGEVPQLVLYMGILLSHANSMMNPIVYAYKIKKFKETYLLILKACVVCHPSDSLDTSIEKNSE
The note with it: for A1/A3: ratio Ki(A1)/Ki(A3), agonist radioligands.

Where [4] appears, read: human A2A, CHO cells, [^3H]CGS21680.

Each structure is given as a SMILES string. pKi: −log10 of the molar value. Read-outs that look alike come from different tables or passages of the source. Where only a bound is given, the exact number is not on record here.

T1 sequence (P29274 whole entry): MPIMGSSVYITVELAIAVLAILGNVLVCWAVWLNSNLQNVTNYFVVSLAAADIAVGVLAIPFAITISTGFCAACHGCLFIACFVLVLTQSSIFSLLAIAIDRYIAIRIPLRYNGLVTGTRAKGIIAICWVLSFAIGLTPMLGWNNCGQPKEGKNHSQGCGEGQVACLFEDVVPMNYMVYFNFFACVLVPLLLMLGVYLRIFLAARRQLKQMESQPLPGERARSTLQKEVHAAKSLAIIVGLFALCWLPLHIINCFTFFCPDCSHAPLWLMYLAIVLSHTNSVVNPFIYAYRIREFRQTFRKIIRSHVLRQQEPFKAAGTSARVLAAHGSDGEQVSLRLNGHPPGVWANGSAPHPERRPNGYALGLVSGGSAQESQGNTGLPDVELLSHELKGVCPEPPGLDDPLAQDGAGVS

A word on the pKi: it is the negative decadic logarithm of the Ki, by convention in mol/L. Regarding `CCCN(CCC)S(=O)(=O)c1ccc(NC(=O)Nc2ncnc3c2ncn3[C@@H]2O[C@H](C(=O)NCC)[C@@H](O)[C@H]2O)cc1` [Compound 102, 1-Deoxy-1-[6-[[[[4-[N,N-bis(propyl)aminosulfonyl]phenyl]amino]-carbo-nyl]amino]-9H-purin-9-yl]-N-ethyl-β-D-ribofuranuronamide], the negative-log Ki (pKi) in data set [1] (setting [4]) is < 6.00; in data set [2] it was 6.46; in data set [3], 7.85. In general, melting point refers to the temperature, or range, at which the solid turns liquid. `C=CCN(CC=C)S(=O)(=O)c1ccc(NC(=O)Nc2ncnc3c2ncn3[C@@H]2O[C@H](C(=O)NCC)[C@@H](O)[C@H]2O)cc1` [Compound 99, 1-Deoxy-1-[6-[[[[4-[N,N-bis(allyl)amino-sulfonyl]phenyl]amino]carbonyl]amino]-9H-purin-9-yl]-N-ethyl-β-D-ribofuranuronamide]: the melting point worked out at 126 °C. Also, in data set [1] (setting [4]), the pKi was < 6.00. The molecule further showed a pKi in data set [2] of 6.42. Besides, in data set [3], the pKi was 8.00 and the A1/A3 was 38. `CCNC(=O)[C@H]1O[C@@H](n2cnc3c(NC(=O)Nc4ccc(S(=O)(=O)N(CC)CC)cc4)ncnc32)[C@H](O)[C@@H]1O` [Compound 100, 1-Deoxy-1-[6-[[[[4-[N,N-bis(ethyl)amino-sulfonyl]phenyl]amino]carbonyl]amino]-9H-purin-9-yl]-N-ethyl-β-D-ribofuranuronamide] yielded a melting point of 168 °C. Moreover, the negative-log Ki (pKi) in data set [1] (setting [4]) is < 6.00. On to `CCNC(=O)[C@H]1O[C@@H](n2cnc3c(NC(=O)Nc4cccc(S(=O)(=O)N5CC=CC5)c4)ncnc32)C(O)C1O` (stereo partly drawn) [Compound 114, 1-Deoxy-N-ethyl-1-[[6-[[[3-(2,5-dihydropyrrol-1-yl)sulfonylphenyl]amino]carbonyl]amino]-9H-purin-9-yl]-b-D-ribofuranuronamide], for which the melting point fell in the range of 145 to 146 °C. The same measure, in the same setting: with `CCNC(=O)[C@H]1O[C@@H](n2cnc3c(NC(=O)Nc4ccccc4S(=O)(=O)NC45C[C@H]6C[C@@H](C4)C[C@@H](C5)C6)ncnc32)C(O)C1O` (stereo partly drawn) [Compound 109, 1-Deoxy-N-ethyl-1-[[6-[[[2-N-(adamantan-1-yl)-sulfonamidophenyl]amino]carbonyl]amino]-9H-purin-9-yl]-b-D-ribofuran-uronamide] the figure was 159 to 161 °C; with `CCNC(=O)[C@H]1O[C@@H](n2cnc3c(NC(=O)Nc4cccc(S(=O)(=O)Nc5ccc(OC)cc5)c4)ncnc32)C(O)C1O` (stereo partly drawn) [Compound 105, 1-Deoxy-N-ethyl-1-[[6-[[[3-N-(4-methoxyphenyl)-sulfonamidophenyl]amino]carbonyl]amino]-9H-purin-9-yl]-b-D-ribofuran-uronamide], 206 to 208 °C (dec.).

Molecule `CCNC(=O)[C@H]1O[C@@H](n2cnc3c(NC(=O)Nc4ccccc4S(N)(=O)=O)ncnc32)C(O)C1O` (stereo partly drawn) [Compound 106, 1-Deoxy-N-ethyl-1-[[6-[[(2-sulfonamidophenyl)amino]-carbonyl]amino]-9H-purin-9-yl]-b-D-ribofuranuronamide] had a melting point of 188 to 189 °C. Same read-out and setting: then `CCCCCNS(=O)(=O)c1cccc(NC(=O)Nc2ncnc3c2ncn3[C@@H]2O[C@H](C(=O)NCC)C(O)C2O)c1` (stereo partly drawn) [Compound 104, 1-Deoxy-N-ethyl-1-[[6-[[[3-N-(pentyl)-sulfonamido-phenyl]amino]carbonyl]amino]-9H-purin-9-yl]-b-D-ribofuranuronamide], with 158 to 159 °C; and `CCNC(=O)[C@H]1O[C@@H](n2cnc3c(NC(=O)Nc4ccc(S(=O)(=O)N(C)C(C)C)cc4)ncnc32)C(O)C1O` (stereo partly drawn) [Compound 97, 1-Deoxy-1-[6-[[[[4-[N-(1-methylethyl)-N-(methyl)-aminosulfonyl]phenyl]amino]carbo-nyl]amino]-9H-purin-9-yl]-N-ethyl-β-D-ribofuranuronamide], with 140 °C. `CCNC(=O)[C@H]1O[C@@H](n2cnc3c(NC(=O)Nc4ccc(S(=O)(=O)N(C)C)cc4)ncnc32)C(O)C1O` (stereo partly drawn) [Compound 98, 1-Deoxy-1-[6-[[[[4-[N,N-(dimethyl)amino-sulfonyl]phenyl]amino]carbonyl]amino]-9H-purin-9-yl]-N-ethyl-β-D-ribofuranuronamide] displayed a melting point of 176 °C. Also, in data set [1] (setting [4]), the pKi is < 6.00. The molecule further showed a pKi in data set [2] of 6.55. Consider `CCNC(=O)[C@H]1O[C@@H](n2cnc3c(NC(=O)Nc4cccc(S(=O)(=O)NC56C[C@H]7C[C@@H](C5)C[C@@H](C6)C7)c4)ncnc32)C(O)C1O` (stereo partly drawn) [Compound 113, 1-Deoxy-N-ethyl-1-[[6-[[[3-N-(adamantan-1-yl)-sulfonamidophenyl]amino]carbonyl]amino]-9H-purin-9-yl]-b-D-ribofuran-uronamide], for which the melting point is 188 to 189 °C. In the case of `CCNC(=O)[C@H]1O[C@@H](n2cnc3c(NC(=O)Nc4ccc(S(=O)(=O)NC5C=CCC5)cc4)ncnc32)[C@H](O)[C@@H]1O` (stereo partly shown) [Compound 101], the pKi in data set [1] is < 6.00; in data set [2] (read-out: Ki(A1). Displacement of [^3H]CHA binding to human A1 adenosine receptors exp. in CHO cells., human A1, CHO cells, [^3H]CHA, confidence limits in parentheses), 6.60. In data set [3], the A1/A3 is on record as 13.16. `CCCCCNS(=O)(=O)c1ccccc1NC(=O)Nc1ncnc2c1ncn2[C@@H]1O[C@H](C(=O)NCC)C(O)C1O` (stereo partly drawn) [Compound 108, 1-Deoxy-N-ethyl-1-[[6-[[[2-N-(pentyl)-sulfonamido-phenyl]amino]carbonyl]amino]-9H-purin-9-yl]-b-D-ribofuranuronamide] came in with a melting point of 155 to 157 °C. The same measure, in the same setting: with `CCNC(=O)[C@H]1O[C@@H](n2cnc3c(NC(=O)Nc4ccccc4S(=O)(=O)N4CC=CC4)ncnc32)C(O)C1O` (stereo partly drawn) [Compound 110, 1-Deoxy-N-ethyl-1-[[6-[[[2-(2,5-dihydropyrrol-1-yl)sulfonylphenyl]amino]carbonyl]amino]-9H-purin-9-yl]-b-D-ribofuranuronamide] the figure was 149 to 151 °C.

The molecule `CCNC(=O)[C@H]1O[C@@H](n2cnc3c(NC(=O)Nc4ccccc4S(=O)(=O)Nc4ccc(OC)cc4)ncnc32)C(O)C1O` (stereo partly drawn) [Compound 103, 1-Deoxy-N-ethyl-1-[[6-[[[2-N-(4-methoxyphenyl)-sulfonamidophenyl]amino]carbonyl]amino]-9H-purin-9-yl]-b-D-ribofuran-uronamide] came in with a melting point of 168 to 170 °C. On the same count and under the same terms, then `CCNC(=O)[C@H]1O[C@@H](n2cnc3c(NC(=O)Nc4ccccc4S(=O)(=O)N(C)C(C)C)ncnc32)C(O)C1O` (stereo partly drawn) [Compound 107, 1-Deoxy-N-ethyl-1-[[6-[[[2-N-(isopropyl)-N-(methyl)-sulfonamidophenyl]amino]carbonyl]amino]-9H-purin-9-yl]-b-D-ribofuranuron-amide], with 142 to 144 °C; and `CCNC(=O)[C@H]1O[C@@H](n2cnc3c(NC(=O)Nc4cccc(S(=O)(=O)N(C)C(C)C)c4)ncnc32)C(O)C1O` (stereo partly drawn) [Compound 112, 1-Deoxy-N-ethyl-1-[[6-[[[3-N-(isopropyl)-N-(methyl)-sulfonamidophenyl]amino]carbonyl]amino]-9H-purin-9-yl]-b-D-ribofuranuron-amide], with 147 to 148 °C.

For the origin of these results see patent US7511133B2, “Adenosine A3 receptor agonists” (King Pharmaceuticals Research and Development, Inc., priority 2003, dated 2009).
